Source: patent US20260053812A1, “METHODS OF TREATING HYPERTENSION WITH A COMBINATION OF AN ALDOSTERONE SYNTHASE INHIBITOR AND A DIURETIC” (Mineralys Therapeutics, Inc., priority 2022, published 2026)
“Also recorded” adds a separate entry of the source. Where two headings read alike, the source gives them in different places.

Assays:
Assay type in all cases: in vivo, human
[1] = system: subjects with uncontrolled hypertension; assay: Seated automated office blood pressure (AOBP), randomized placebo-controlled dose-ranging study; settings: for Automated office DBP, mean CFB at Week 8: Part 1
Procedure: A randomized, double-blinded, placebo-controlled, dose-ranging, multicenter study was conducted to evaluate the effect of orally administered Compound A HBr on blood pressure for the treatment of hypertension in male and female subjects ≥18 years of age.
The study consists of two parts. For enrollment into Part 1 of the study, a subject's value of plasma renin activity (PRA) must be ≤1 ng/mL/h based on morning measurement. If the value of PRA >1 ng/mL/h based on morning measurement, then subjects may be eligible to enter Part 2 of the study.
For Part 1, 163 enrolled subjects ≥18 years of age were randomized into 6 equal treatment groups (1:1:1:1:1:1) to 12.5 mg BID, 25 mg BID, 12.5 mg QD, 50 mg QD, 100 mg QD, or placebo. After a review of interim clinical data, the 2 lowest dose levels (12.5 mg QD and 12.5 mg BID) were stopped for future randomization due to a lack of consistent meaningful reduction of blood pressure, but the patients randomized to that point remained in the study through completion. Thus, after the review of interim clinical data, subjects were randomized into 4 equal treatment groups (1:1:1:1) to 25 mg BID, 50 mg QD, 100 mg QD, or placebo.
For Part 2, 36 enrolled subjects ≥18 years of age were randomized (5:1) to either 100 mg QD Compound A HBr or placebo such that the Compound A HBr treatment group consisted of approximately 30 subjects and the placebo treatment group will consist of approximately 6 subjects.
Subjects orally administered the assigned study drug (Compound A HBr or placebo) according to the assigned dosing regimen for 8 weeks beginning on Study Day 1. All subjects in Part 1 (regardless of dosing group) received BID dosing to preserve the integrity of the blind; active drug is administered as the morning dose for all QD dose groups. Subjects returned to the research facility or were seen by the clinical investigator or approved home health care professional at the end of Study Weeks 1, 2, 3, 4, 5, 6, 7, and 8 (±2 days) for protocol-defined efficacy and safety assessments and procedures, assessment of adverse events (AEs), and confirmation of compliance with study drug usage. Subjects also completed a telephone visit and blood pressure (BP) check at home approximately 3 days post last dose of study drug. Subjects attended up to 14 full clinic visits, including a pre-Screening visit, a Screening/start of Placebo Run-in visit, a second visit during Placebo Run-in, a clinic visit to initiate the ABPM procedure, a Randomization visit, 8 weekly visits during double-blind treatment, and an end-of-study visit scheduled 4 weeks after the last study treatment for final efficacy and safety assessments.
An automated oscillometric sphygmomanometer device was used to measure the subjects' systolic and diastolic blood pressure in office after approximately 5 minutes of rest in the seated position.
The primary endpoint is the change in office-measured (mean of last 2 of 5 unattended measurements using an automated oscillometric sphygmomanometer device after approximately 5 minutes of rest in the seated position) systolic blood pressure (SBP) from baseline to the end of Study Week 8.
Secondary endpoints of this study were: • (a) Change in 24-hour ambulatory blood pressure monitoring (ABPM) parameters (systolic and diastolic) from baseline to the end of Study Week 7. • (b) Change in office-measured SBP from baseline to the end of Study Weeks 1, 2, 3, 4, 5, 6, and 7. • (c) Change in office-measured diastolic blood pressure (DBP) from baseline to the end of Study Weeks 1, 2, 3, 4, 5, 6, 7, and 8. • (d) Proportion of subjects who achieve office-measured BP of ≤130/80 mm Hg by the end of Study Week 8.
For AOBP measurements and any other clinical or laboratory variable for which there are replicate evaluations at the screening and baseline visits, baseline is defined as the mean of the last two non-missing values prior to first administration of the IMP for the double-blinded treatment period.

[2] = Pharmacokinetics (plasma concentration, Cmax, AUC, trough); settings: for concentration at 7 day: human, plasma, oral, Day 7, read-out: Trough plasma concentration, Geo Mean
From the text: Pharmacokinetic endpoints of this study are PK parameters, including, of area under the plasma concentration versus time curve (AUC), maximum plasma concentration (Cmax), time to maximum concentration (Tmax), and half-life (t1/2) will be summarized descriptively for Randomization (baseline) and Study Weeks 1, 4, and 8
(§1) PK/PD Analysis Set includes all subjects in the SAF who have sufficient data available for the analysis of pharmacokinetic and pharmacodynamic measurements. In the analyses based on PKPD, subjects will be analyzed according to the actual treatment received.

[3] = system: serum aldosterone; assay: Pharmacodynamics: serum aldosterone; settings: for Aldosterone, mean observed: BL; for Aldosterone levels relative to baseline: Part 1 lorundrostat-treated (range across doses)
From the text: as §1

[4] = system: 11-deoxycortisol; assay: Pharmacodynamics: plasma 11-deoxycortisol; settings: for 11-Deoxycortisol, mean observed: BL
From the text: as §1

[5] = system: plasma renin activity; assay: Pharmacodynamics: plasma renin activity (PRA); settings: for Renin Activity, mean observed: BL
From the text: as §1

[6] = Serum sodium; settings: active treatment cohorts, Parts 1 and 2
[7] = ACTH stimulation testing; settings: majority of Part 2 subjects, 100 mg QD, Baseline and after 8 weeks
Procedure: 11-deoxycorticosterone levels were unaffected. […] Due to supply chain disruption, the ability to perform ACTH stimulation testing was limited during the first part of the trial. However, the majority of subjects in Part 2 dosed with 100 mg QD, the maximum dose tested, had ACTH-stimulation testing performed at Baseline and after 8 weeks of treatment.

[8] = steady state, Day 28, 100 mg QD Part 1

CC(=O)N[C@H]1CC[C@H](NC(=O)CN2CCN(c3nncc(-c4ccc(C)cc4)n3)CC2)CC1 [Compound A HBr]
Placebo-corrected mean change in AOBP systolic BP, Full-analysis set ([1]; 100 mg, Part-1 and Part-2 (interim) combined, N=58 active): −9.9 mmHg
Automated office DBP, mean CFB at Week 8 ([1]; 12.5 mg BID, BMI <25 kg/m^2): 6.00 mmHg
Automated office DBP, mean CFB at Week 8 ([1]; 50 mg QD, Seated SBP Tertile Low): −2.42 mmHg
Automated office DBP, mean CFB at Week 8 ([1]; 100 mg QD, BMI 25-30 kg/m^2): −6.50 mmHg
Automated office DBP, mean CFB at Week 8 ([1]; 100 mg QD, Seated SBP Tertile Middle): −6.17 mmHg
Automated office DBP, mean CFB at Week 8 ([1]; 100 mg QD, thiazide diuretic use at baseline No): −4.00 mmHg
Blood pressure reduction in individuals receiving a thiazide diuretic as background medication ([1]; observed across dosing cohorts): particularly effective
Blood pressure reduction in individuals with BMI greater than 30 ([1]; observed across dosing cohorts): particularly effective
Subjects with change in BPsys >−15 mmHg ([1]; pooled 50 mg QD, 100 mg QD, 12.5 mg BID, 25 mg BID cohorts (N=103), week 8): 41%
Systemic exposure expressed as Cmax or AUC ([2]; across doses): increased with increasing dose
concentration at 7 day ([2]; 12.5 mg, 12.5 mg BID): 0.0204 µg/mL
concentration at 7 day ([2]; 12.5 mg, 12.5 mg QD): 0.00655 µg/mL
concentration at 7 day ([2]; 25 mg, 25 mg BID): 0.0496 µg/mL
concentration at 7 day ([2]; 50 mg, 50 mg QD): 0.0166 µg/mL
concentration at 7 day ([2]; 100 mg, 100 mg QD Part 1): 0.0534 µg/mL
concentration at 7 day ([2]; 100 mg, 100 mg QD Part 2): 0.0351 µg/mL
AUC0-24, Median [2, 8]: 15 µg·h/mL
Cmax, Geo Mean [2, 8]: 1.37 µg/mL
Aldosterone, mean observed ([3]; Part 1, 12.5 mg BID): 6.636 ng/dL
Aldosterone, mean observed ([3]; Part 1, 12.5 mg QD): 7.065 ng/dL
Aldosterone, mean observed ([3]; Part 1, 25 mg BID): 6.558 ng/dL
Aldosterone, mean observed ([3]; Part 1, 50 mg QD): 6.205 ng/dL
Aldosterone, mean observed ([3]; Part 1, 100 mg QD): 6.533 ng/dL
Aldosterone levels relative to baseline ([3]; Week 4): −40.1% to 7.4%
Aldosterone levels relative to baseline ([3]; Week 12): −26.6% to 15.9%
Aldosterone, mean observed ([3]; Part 2, 100 mg QD): 6.435 ng/dL
Serum aldosterone levels ([3]; pharmacodynamic response across doses): dose-dependent reduction
11-Deoxycortisol, mean observed ([4]; Part 1, 12.5 mg BID): 28.36 ng/dL
11-Deoxycortisol, mean observed ([4]; Part 1, 12.5 mg QD): 29.07 ng/dL
11-Deoxycortisol, mean observed ([4]; Part 1, 25 mg BID): 25.87 ng/dL
11-Deoxycortisol, mean observed ([4]; Part 1, 50 mg QD): 31.14 ng/dL
11-Deoxycortisol, mean observed ([4]; Part 1, 100 mg QD): 29.97 ng/dL
11-deoxycortisol ([4]; Part 1 active treatment arms, Week 4 compared with placebo): Transient increases
11-Deoxycortisol, mean observed ([4]; Part 2, 100 mg QD): 40.79 ng/dL
Renin Activity, mean observed ([5]; Part 1, 12.5 mg BID): 1.299 µg/L/h
Renin Activity, mean observed ([5]; Part 1, 12.5 mg QD): 0.950 µg/L/h
Renin Activity, mean observed ([5]; Part 1, 25 mg BID): 1.104 µg/L/h
Renin Activity, mean observed ([5]; Part 1, 50 mg QD): 1.258 µg/L/h
Renin Activity, mean observed ([5]; Part 1, 100 mg QD): 0.956 µg/L/h
Renin Activity, mean observed ([5]; Part 2, 100 mg QD): 5.417 µg/L/h
Plasma renin activity ([5]; pharmacodynamic response, all doses, listed as lorundrostat): commensurate increase; also recorded: increased in all subjects treated with lorundrostat
Serum sodium levels [6]: decreased
ACTH-stimulation results [7]: no individuals with abnormal ACTH-stimulation results
